In ChEMBL document CHEMBL1121896, “Potential histamine H2-receptor blockers. 3- and 2-indole derivatives as immobile analogues of tautomeric forms of cimetidine” (J Med Chem, 1981):
Calls of active or inactive are those of the source. The calls are words filed in the database; no cut-off is given here.

Experiments:
[1] = biological target: Histamine H2 receptor (Cavia porcellus) (UniProt P47747); experiment: Ratio of potency (3*10e-5M) to that of agonist for histamine H2 receptor, in an assay for guinea pig atria chronotropic response; type: functional
[2] = biological target: Histamine H2 receptor (Cavia porcellus) (UniProt P47747); experiment: Competitive antagonism of compound at histamine H2 receptor compared to 4-methylhistamine as effect on resting heart rate in guinea pig atria expressed as potency ratio; (Inactive); type: functional, tissue-based
[3] = biological target: Histamine H2 receptor (Cavia porcellus) (UniProt P47747); experiment: Competitive antagonism of compound at histamine H2 receptor compared to 4-methylhistamine induced chronotropic response in guinea pig atria; nonparallel shift in dose response curve; type: functional; conditions: filed as antagonist
[4] = biological target: Histamine H2 receptor (Cavia porcellus) (UniProt P47747); experiment: Competitive antagonism of compound at histamine H2 receptor compared to 4-methylhistamine as effect on resting heart rate in guinea pig atria expressed as potency ratio; Inactive; type: functional, tissue-based
[5] = biological target: Histamine H2 receptor (Cavia porcellus) (UniProt P47747); experiment: Competitive antagonism of compound at histamine H2 receptor compared to 4-methylhistamine induced chronotropic response in guinea pig atria; + Potency ratio greater than 1.0; type: functional
[6] = biological target: Histamine H2 receptor (Cavia porcellus) (UniProt P47747); experiment: Ratio of potency (3*10e-5M) to that of agonist for Histamine H2 receptor, in an assay for guinea pig atria chronotropic response; type: functional
[7] = biological target: Histamine H2 receptor (Cavia porcellus) (UniProt P47747); experiment: Competitive antagonism of compound at histamine H2 receptor compared to 4-methylhistamine induced chronotropic response in guinea pig atria expressed as potency ratio; Not significantly greater than 1.0 (Inactive); type: functional

Sequence of Histamine H2 receptor (Cavia porcellus) (P47747 whole entry): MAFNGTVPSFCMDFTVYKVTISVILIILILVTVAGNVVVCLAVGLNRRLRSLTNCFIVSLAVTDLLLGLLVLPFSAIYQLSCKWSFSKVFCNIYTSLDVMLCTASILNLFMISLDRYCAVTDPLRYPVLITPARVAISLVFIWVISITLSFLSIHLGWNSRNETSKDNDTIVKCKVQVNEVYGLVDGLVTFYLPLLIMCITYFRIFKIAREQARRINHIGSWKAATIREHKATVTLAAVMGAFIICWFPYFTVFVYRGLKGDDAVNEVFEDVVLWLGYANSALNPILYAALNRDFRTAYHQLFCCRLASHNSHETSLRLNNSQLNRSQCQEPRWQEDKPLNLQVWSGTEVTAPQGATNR

SMILES	Potency ratio [1]	Antagonism [5]	Antagonism [7]	other results
C/N=C(\NC#N)NCCSCc1cc2ccccc2[nH]1	1.76			Antagonism [2]: inactive
CS/C(=N\CCSCc1cc2ccccc2[nH]1)NC#N	6.04			Antagonism [3]: Non-competitive antagonist
S=C(NCCSCc1cc2ccccc2[nH]1)Nc1ccccc1	2.54			Antagonism [4]: inactive
CN/C(=N\CCSCc1nc[nH]c1C)NC#N	36.8	> 1		
S=C(NCCSCc1c[nH]c2ccccc12)Nc1ccccc1			inactive	Potency ratio [6]: 1.16
CS/C(=N\CCSCc1c[nH]c2ccccc12)NC#N	2.56	> 1		
C/N=C(\S)NCCSCc1c[nH]c2ccccc12	1.06		> 1	
C/N=C(\S)NCCSCc1cc2ccccc2[nH]1	3.35	> 1		
C/N=C(\NC#N)NCCSCc1c[nH]c2ccccc12	0.84		inactive	
